According to paper PMC6480460, “Derivatives of the β-Crinane Amaryllidaceae Alkaloid Haemanthamine as Multi-Target Directed Ligands for Alzheimer’s Disease” (Molecules, 2019):
Like-named read-outs stand apart in the source and are kept apart here.

Columns and labels:
[1] = test system: human cell lines (Jurkat, MOLT-4, A549, HT-29, PANC-1, A2780, HeLa, MCF-7, SAOS-2 and MRC-5); experiment: WST-1 antiproliferative screen, whole panel of tested human cell lines; format: cell-based; details: 10 µM single-dose, 48 h of exposure
Protocol: The antiproliferative effect of 1a–1m at 10 µM single-dose treatment regimen was assessed using WST-1 tetrazolium salt assay. […] Kinetic analysis of 1j and 1m was used for the determination of their inhibition pattern against both hAChE and hBuChE. […] The Km and Vm values were calculated from the Lineweaver-Burk plot. […]
The WST-1 (Roche, Mannheim, Germany) reagent was used to determine the cytostatic effect of the test compounds. WST-1 is designed for the spectrophotometric quantification of cell proliferation, growth, viability and chemosensitivity in cell populations using a 96-well-plate format (Sigma, St. Louis, MO, USA). […] Absorbance was measured after 3 h incubation with WST-1 at 440 nm. […] The viability was quantified as described previously according to the following formula: (%) viability = (Asample − Ablank)/(Acontrol − Ablank) × 100, where A is the absorbance of the employed WST-1 formazan measured at 440 nm. […]

[2] = target: T1, hAChE (Homo sapiens, UniProt P22303); experiment: biochemical; format: biochemical; details: for IC50: mean ± SEM of three independent measurements, each in triplicate
Protocol: (§1) The hAChE and hBuChE activities were determined using a modified method of Ellman with acetylthiocholine iodide (ATChI) and butyrylthiocholine iodide (BuTChI) as substrates, respectively.

[3] = target: T2, hBuChE (Homo sapiens, UniProt P06276); experiment: biochemical; format: biochemical
Protocol: as §1

[4] = test system: A2780 (ovarian carcinoma); experiment: WST-1 cytotoxicity assay, A2780; format: cell-based; details: Homo sapiens, c = 10 μM, 48 h, percent of proliferation of untreated control cells, read-out: Cell proliferation, A2780
From the text: (§2) Selected human tumor and non-tumor cell lines {Jurkat (acute T cell leukemia), MOLT-4 (acute lymphoblastic leukemia), A549 (lung carcinoma), HT-29 (colorectal adenocarcinoma), PANC-1 (pancreas epithelioid carcinoma), A2780 (ovarian carcinoma), HeLa (cervix adenocarcinoma), MCF-7 (breast adenocarcinoma), SAOS-2 (osteosarcoma) and MRC-5 (normal lung fibroblasts)} were purchased from either ATCC (Manassas, VA, USA) or Sigma-Aldrich (St. Louis, MO, USA) and cultured according to the provider’s culture method guidelines. […] Cells in the maximum range of either 10 passages for primary cell line (MRC-5), or in the maximum range of 20 passages for cancer cell lines (Jurkat, MOLT-4, A549, HT-29, PANC-1, A2780, HeLa, MCF-7 and SAOS-2) and in an exponential growth phase were used for this study.
(§3) The WST-1 (Roche, Mannheim, Germany) reagent was used to determine the cytostatic effect of the test compounds. WST-1 is designed for the spectrophotometric quantification of cell proliferation, growth, viability and chemosensitivity in cell populations using a 96-well-plate format (Sigma, St. Louis, MO, USA). The principle of WST-1 is based on photometric detection of the reduction of tetrazolium salt to a colored formazan product. The cells were seeded at a previously established optimal density (30,000 Jurkat, 25,000 MOLT-4, 500 A549, 1500 HT-29, 2000 PANC-1, 5000 A2780, 500 HeLa, 1500 MCF-7, 2000 SAOS-2 and 2000 MRC-5 cells/well) in 100 µL of culture medium, and adherent cells were allowed to reattach overnight. Thereafter, the cells were treated with 100 µL of either corresponding alkaloids or doxorubicin stock solutions to obtain the desired concentrations and incubated in 5% CO2 at 37 °C. WST-1 reagent diluted 4-fold with PBS (50 µL) was added 48 h after treatment. Absorbance was measured after 3 h incubation with WST-1 at 440 nm. The measurements were performed in a Tecan Infinite M200 spectrometer (Tecan Group, Männedorf, Switzerland). All experiments were performed at least three times with triplicate measurements at each drug concentration per experiment. The viability was quantified as described previously according to the following formula: (%) viability = (Asample − Ablank)/(Acontrol − Ablank) × 100, where A is the absorbance of the employed WST-1 formazan measured at 440 nm. The viability of the treated cells was normalized to the viability of cells treated with 0.1% DMSO (Sigma-Aldrich) as a vehicle control.

[5] = test system: SAOS-2 (osteosarcoma); experiment: WST-1 cytotoxicity assay, SAOS-2; format: cell-based; details: Homo sapiens, c = 10 μM, 48 h, percent of proliferation of untreated control cells, read-out: Cell proliferation, SAOS-2
From the text: as §2, §3

[6] = test system: PANC-1 (pancreas epithelioid carcinoma); experiment: WST-1 cytotoxicity assay, PANC-1; format: cell-based; details: Homo sapiens, c = 10 μM, 48 h, percent of proliferation of untreated control cells, read-out: Cell proliferation, PANC-1
From the text: as §2, §3

[7] = test system: MCF-7 (breast adenocarcinoma); experiment: WST-1 cytotoxicity assay, MCF-7; format: cell-based; details: Homo sapiens, MCF7; c = 10 μM, 48 h, percent of proliferation of untreated control cells; read-out: Cell proliferation, MCF-7
From the text: as §2, §3

[8] = test system: HeLa (cervix adenocarcinoma); experiment: WST-1 cytotoxicity assay, HeLa; format: cell-based; details: Homo sapiens, c = 10 μM, 48 h, percent of proliferation of untreated control cells, read-out: Cell proliferation, HeLa
From the text: as §2, §3

[9] = test system: A549 (lung carcinoma); experiment: WST-1 cytotoxicity assay, A549; format: cell-based; details: Homo sapiens, c = 10 μM, 48 h, percent of proliferation of untreated control cells, read-out: Cell proliferation, A549
From the text: as §2, §3

[10] = test system: HT-29 (colorectal adenocarcinoma); experiment: WST-1 cytotoxicity assay, HT-29; format: cell-based; details: Homo sapiens, c = 10 μM, 48 h, percent of proliferation of untreated control cells, read-out: Cell proliferation, HT-29
From the text: as §2, §3

[11] = test system: MOLT-4 (acute lymphoblastic leukemia); experiment: WST-1 cytotoxicity assay, MOLT-4; format: cell-based; details: Homo sapiens, c = 10 μM, 48 h, percent of proliferation of untreated control cells, read-out: Cell proliferation, MOLT-4
From the text: as §2, §3

[12] = test system: MRC-5 (normal lung fibroblasts); experiment: WST-1 cytotoxicity assay, MRC-5; format: cell-based; details: Homo sapiens, MRC5; c = 10 μM, 48 h, percent of proliferation of untreated control cells; read-out: Cell proliferation, MRC-5
From the text: as §2, §3

[13] = target: T1, hAChE; experiment: AChE inhibition mechanism (Lineweaver-Burk kinetic analysis); format: biochemical; details: Lineweaver-Burk plot; Km and Vm decreased
Protocol: (§4) The antiproliferative effect of 1a–1m at 10 µM single-dose treatment regimen was assessed using WST-1 tetrazolium salt assay. […] Kinetic analysis of 1j and 1m was used for the determination of their inhibition pattern against both hAChE and hBuChE. […] The Km and Vm values were calculated from the Lineweaver-Burk plot.

[14] = target: GSK-3β (Homo sapiens, UniProt P49841); experiment: GSK-3β assay (Kinase-Glo Kit); format: biochemical; details: for inhibition at 10 µM: tested at 10 µM compound concentration, read-out: GSK-3β (% inhib.)
Protocol: The GSK-3β assay was performed by using Kinase-Glo Kit obtained from Promega (Promega Biotech Iberica, SL, Madrid, Spain) as described previously.

[15] = in vitro; details: for PAMPA-BBB Permeability (Pe) / Papp: PBS:EtOH (70:30) as solvent, mean ± SD of 2 independent experiments; for PAMPA-BBB prediction of penetration in the CNS: class from Pe; for Papp: pig, PAMPA, PAMPA-BBB Permeability (Pe)
Protocol: The PAMPA assay was performed as previously described.

[16] = test system: Jurkat (acute T cell leukemia); experiment: WST-1 cytotoxicity assay, Jurkat; format: cell-based; details: Homo sapiens, c = 10 μM, 48 h, percent of proliferation of untreated control cells
From the text: as §2, §3

[17] = target: T2, hBuChE; experiment: BuChE inhibition mechanism (Lineweaver-Burk kinetic analysis); format: biochemical; details: for mechanism of inhibition of hBuChE: Lineweaver-Burk plot, Km and Vm decreased
Protocol: as §4

[18] = mean ± SEM of three independent measurements, each in triplicate, read-out: hBuChE IC50

T1 sequence (P22303 32-614): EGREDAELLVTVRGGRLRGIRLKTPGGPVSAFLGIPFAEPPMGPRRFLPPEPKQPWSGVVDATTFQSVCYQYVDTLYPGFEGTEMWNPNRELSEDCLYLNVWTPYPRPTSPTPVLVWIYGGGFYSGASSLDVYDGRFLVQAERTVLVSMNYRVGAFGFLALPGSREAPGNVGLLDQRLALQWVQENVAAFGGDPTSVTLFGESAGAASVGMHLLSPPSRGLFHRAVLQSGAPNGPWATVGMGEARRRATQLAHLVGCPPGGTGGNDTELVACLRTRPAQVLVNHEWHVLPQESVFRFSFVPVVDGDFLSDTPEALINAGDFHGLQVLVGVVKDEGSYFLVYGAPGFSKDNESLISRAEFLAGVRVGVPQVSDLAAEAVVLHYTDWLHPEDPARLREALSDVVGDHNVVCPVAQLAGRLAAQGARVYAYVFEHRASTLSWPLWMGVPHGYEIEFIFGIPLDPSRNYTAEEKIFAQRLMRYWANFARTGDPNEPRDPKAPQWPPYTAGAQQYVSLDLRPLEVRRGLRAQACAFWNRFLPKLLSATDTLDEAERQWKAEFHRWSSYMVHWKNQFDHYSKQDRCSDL
GSK-3β, sequence (P49841 whole entry): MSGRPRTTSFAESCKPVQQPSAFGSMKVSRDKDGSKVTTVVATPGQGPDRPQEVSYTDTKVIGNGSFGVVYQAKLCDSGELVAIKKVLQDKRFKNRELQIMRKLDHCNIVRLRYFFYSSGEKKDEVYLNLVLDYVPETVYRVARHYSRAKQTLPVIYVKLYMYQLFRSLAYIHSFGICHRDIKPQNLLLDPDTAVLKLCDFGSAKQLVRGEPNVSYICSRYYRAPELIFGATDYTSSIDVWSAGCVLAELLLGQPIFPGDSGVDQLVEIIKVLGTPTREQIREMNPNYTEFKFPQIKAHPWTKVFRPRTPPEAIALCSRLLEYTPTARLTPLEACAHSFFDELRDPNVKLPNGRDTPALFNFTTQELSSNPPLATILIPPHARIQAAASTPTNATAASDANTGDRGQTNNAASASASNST
T2 sequence (P06276 29-602): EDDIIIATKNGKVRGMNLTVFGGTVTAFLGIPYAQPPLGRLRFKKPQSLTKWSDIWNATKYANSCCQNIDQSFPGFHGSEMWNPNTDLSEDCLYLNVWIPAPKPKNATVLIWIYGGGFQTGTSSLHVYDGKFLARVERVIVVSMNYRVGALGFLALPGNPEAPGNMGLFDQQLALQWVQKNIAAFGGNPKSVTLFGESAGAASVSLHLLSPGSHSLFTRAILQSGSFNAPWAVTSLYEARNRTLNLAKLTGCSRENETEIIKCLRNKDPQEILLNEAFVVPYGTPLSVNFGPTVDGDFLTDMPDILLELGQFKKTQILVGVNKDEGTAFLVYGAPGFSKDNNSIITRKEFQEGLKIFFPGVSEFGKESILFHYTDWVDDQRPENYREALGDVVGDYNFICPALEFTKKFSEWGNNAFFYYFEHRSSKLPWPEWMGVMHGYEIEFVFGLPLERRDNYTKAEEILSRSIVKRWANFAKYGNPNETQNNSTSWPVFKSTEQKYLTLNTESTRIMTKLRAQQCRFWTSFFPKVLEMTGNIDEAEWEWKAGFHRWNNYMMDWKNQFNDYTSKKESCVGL

Compound	IC50 [2] [µM]	activity at 10 µM [4] [%]	activity at 10 µM [5] [%]	activity at 10 µM [6] [%]	activity at 10 µM [7] [%]	activity at 10 µM [8] [%]	activity at 10 µM [9] [%]	activity at 10 µM [10] [%]	viability at 10 µM [11] [%]	activity at 10 µM [12] [%]	IC50 [3, 18] [µM]	mechanism of inhibition of hAChE [13]	inhibition at 10 µM [14] [%]	PAMPA-BBB Permeability (Pe) [15]	PAMPA-BBB prediction of penetration in the CNS [15]	Papp [15] [×10⁻⁶ cm/s]	activity at 10 µM [16] [%]	mechanism of inhibition of hBuChE [17]	also measured
COC1C=CC23c4cc5c(cc4CN(CC2O)C3C1)OCO5 (stereo not shown) [Compound 1, Haemanthamine]	> 500																		toxicity against the tested human cell lines, in words [1]: potent cytotoxic and apoptotic effects; hAChE inhibition activity, in words ([2]; cholinesterase assay): completely inactive; IC50 [3]: > 500 µM; hBuChE inhibition activity, in words ([3]; cholinesterase assay): completely inactive
COC1C=CC23c4cc5c(cc4CN(CC2OC(=O)c2ccc([N+](=O)[O-])cc2)C3C1)OCO5 (stereo not shown) [Compound 1m, 11-O-(4-Nitrobenzoyl)haemanthamine]	14.7 ± 1.8	86 ± 4	69 ± 4	71 ± 7	62 ± 10	71 ± 1	74 ± 6	73 ± 2	76 ± 12	61 ± 8	> 500	mixed mechanism of inhibition	27 ± 9	7.1 ± 0.3 10^−6 cm s^−1	CNS+ (CNS(+): high BBB permeation predicted with Pe (10^−6 cm.s^−1) > 4.0)	> 4	69 ± 7	mixed mechanism of inhibition	IC50 ([14]; mean ± SEM of three independent measurements): 34.8 ± 0.01 µM; PAMPA-BBB prediction of penetration in the CNS ([15]; listed as 18m): CNS +
COC1C=CC23c4cc5c(cc4CN(CC2OC(=O)c2ccccc2C)C3C1)OCO5 (stereo not shown) [Compound 1j, 11-O-(2-Methylbenzoyl)haemanthamine]	18.2 ± 1.3	129 ± 11	97 ± 17	95 ± 6	112 ± 3	104 ± 4	96 ± 8	98 ± 6	91 ± 3	112 ± 9	6.6 ± 1.2	mixed mechanism of inhibition	15 ± 6	5.8 ± 0.9 10^−6 cm s^−1	CNS+ (CNS(+): high BBB permeation predicted with Pe (10^−6 cm.s^−1) > 4.0)	> 4	95 ± 11	mixed mechanism of inhibition	SI for hAChE [2]: 0.4; PAMPA-BBB prediction of penetration in the CNS ([15]; listed as 18j): CNS +; Ki ([17]; from Lineweaver-Burk kinetic analysis): 12.5 ± 0.45 µM
